Patent US11046722B2, “Sulphated disaccharides for the treatment of neuropathic pain” (BIOIBERICA, S.A.U., priority 2017, dated 2021)

What was measured:
[1] = test system: allodynia induced in mice by injecting paclitaxel; experiment: Neuropathic pain induced by chemotherapy (paclitaxel): prevention by coadministration with paclitaxel; type: in vivo; conditions: 30 mg/Kg orally daily for 5 consecutive days coadministered with paclitaxel, evaluated on the 10th day
Method: In Example 3 an experimental model is used in mice based on inducing allodynia by intraperitoneal injection of paclitaxel, as described in the articles by Smith et al., Paclitaxel-induced neuropathic hypersensitivity in mice: responses in 10 inbred mouse strains, Life Sci., 2014, 2593-2604 and Palomano et al., Chemotherapy-evoked painful peripheral neuropathy, Pain Med., 2001, 2 (1), 8-14. In alternative trials, compound Ic was administered after allodynia induction by paclitaxel, or it was administered jointly with this chemotherapy medication. […]
In this test, groups of mice between 7 and 12 animals were used, to which a daily dose of paclitaxel of 2 mg/Kg was administered by intraperitoneal route for 5 consecutive days (except for the control group). The evaluation of the induced mechanical allodynia was carried out on the 10th day after the first paclitaxel injection, and was quantified by using the von Frey filaments, according to the force threshold necessary to cause the paw withdrawal of the animal.
A second trial was carried out using this same model, according to which a daily dose of compound Ic was administered orally, for 5 consecutive days, coadministered with paclitaxel. The allodynia was evaluated the 10th day after the beginning of the treatment. […]

[2] = test system: cold allodynia induced in mice by subcutaneous carrageenan injection; experiment: Cold allodynia induced by subcutaneous carrageenan injection (acetone test, time spent licking the paw); type: in vivo; conditions: carrageenan 1% 50 μl s.c., 60 mg/Kg orally 3.5 hours after injection, acetone test 45 minutes after treatment
From the text: In Example 4 an experimental model is used of cold allodynia induced in mice by subcutaneous carrageenan injection, as described in the article by Choi et al., Behavioral signs of ongoing pain and cold allodynia in a rat model of neuropathic pain, Pain, 1994, 59 (3), 369-376. This trial is based on causing cold allodynia in mice by subcutaneous carrageenan injection in the plantar surface of one of the hind paws of the animals, and subsequently measuring the sensitivity to cold by applying acetone on the plantar surface of both hind paws: the ipsilateral (the same one where the carrageenan was injected) and the contralateral (the unsensitized hind paw). The sensitivity to cold is quantified by measuring the time the animals spent licking the paw for 5 minutes after the application of the acetone. As described in such example, compound Ic is effective in reversing the cold allodynia according to this model (FIG. 6).
In this trial 16 mice were used to which 50 μl of a carrageenan solution at 1% were administered by subcutaneous injection in the plantar surface of one of the hind paws. After 3.5 hours since the injection, 60 mg/Kg of the Ic compound was administered orally to 9 of the animals, while only the vehicle (saline solution) was administered to the remaining 7 (control group). […]

In the case of `CO[C@H]1O[C@H](COS(=O)(=O)[O-])[C@@H](OS(=O)(=O)[O-])[C@H](O[C@@H]2O[C@H](C(=O)[O-])[C@@H](O)[C@H](O)[C@H]2O)[C@H]1NC(C)=O.[Na+].[Na+].[Na+]` [Compound Ic, methyl 2-acetamido-2-desoxi-3-O-(β-D-glucopyranosyluronic acid)-4,6-di-O-sulfo-α-D-glucopyranoside trisodium salt], the “prevention of the development of allodynia” value [1] is reported as “prevented the development of allodynia” and the “reversal of cold allodynia (ipsilateral paw)” value [2] is reported as “completely reversed”.
